In ChEMBL document CHEMBL5653615 (J Biol Chem, 2013):

Key:
[1] = biological target: Calcium/calmodulin-dependent protein kinase type 1 (Homo sapiens) (UniProt Q14012); assay: Inhibition of human CAMK1a at 500 nM by HotSpot assay relative to control
[2] = biological target: SRSF protein kinase 1 (Homo sapiens) (UniProt Q96SB4); assay: Inhibition of human SRPK1 at 500 nM by HotSpot assay relative to control
[3] = biological target: T1, Mitogen-activated protein kinase kinase kinase 5 (Homo sapiens) (UniProt Q99683); assay: Inhibition of human ASK1 at 500 nM by HotSpot assay relative to control
T1 sequence (whole entry): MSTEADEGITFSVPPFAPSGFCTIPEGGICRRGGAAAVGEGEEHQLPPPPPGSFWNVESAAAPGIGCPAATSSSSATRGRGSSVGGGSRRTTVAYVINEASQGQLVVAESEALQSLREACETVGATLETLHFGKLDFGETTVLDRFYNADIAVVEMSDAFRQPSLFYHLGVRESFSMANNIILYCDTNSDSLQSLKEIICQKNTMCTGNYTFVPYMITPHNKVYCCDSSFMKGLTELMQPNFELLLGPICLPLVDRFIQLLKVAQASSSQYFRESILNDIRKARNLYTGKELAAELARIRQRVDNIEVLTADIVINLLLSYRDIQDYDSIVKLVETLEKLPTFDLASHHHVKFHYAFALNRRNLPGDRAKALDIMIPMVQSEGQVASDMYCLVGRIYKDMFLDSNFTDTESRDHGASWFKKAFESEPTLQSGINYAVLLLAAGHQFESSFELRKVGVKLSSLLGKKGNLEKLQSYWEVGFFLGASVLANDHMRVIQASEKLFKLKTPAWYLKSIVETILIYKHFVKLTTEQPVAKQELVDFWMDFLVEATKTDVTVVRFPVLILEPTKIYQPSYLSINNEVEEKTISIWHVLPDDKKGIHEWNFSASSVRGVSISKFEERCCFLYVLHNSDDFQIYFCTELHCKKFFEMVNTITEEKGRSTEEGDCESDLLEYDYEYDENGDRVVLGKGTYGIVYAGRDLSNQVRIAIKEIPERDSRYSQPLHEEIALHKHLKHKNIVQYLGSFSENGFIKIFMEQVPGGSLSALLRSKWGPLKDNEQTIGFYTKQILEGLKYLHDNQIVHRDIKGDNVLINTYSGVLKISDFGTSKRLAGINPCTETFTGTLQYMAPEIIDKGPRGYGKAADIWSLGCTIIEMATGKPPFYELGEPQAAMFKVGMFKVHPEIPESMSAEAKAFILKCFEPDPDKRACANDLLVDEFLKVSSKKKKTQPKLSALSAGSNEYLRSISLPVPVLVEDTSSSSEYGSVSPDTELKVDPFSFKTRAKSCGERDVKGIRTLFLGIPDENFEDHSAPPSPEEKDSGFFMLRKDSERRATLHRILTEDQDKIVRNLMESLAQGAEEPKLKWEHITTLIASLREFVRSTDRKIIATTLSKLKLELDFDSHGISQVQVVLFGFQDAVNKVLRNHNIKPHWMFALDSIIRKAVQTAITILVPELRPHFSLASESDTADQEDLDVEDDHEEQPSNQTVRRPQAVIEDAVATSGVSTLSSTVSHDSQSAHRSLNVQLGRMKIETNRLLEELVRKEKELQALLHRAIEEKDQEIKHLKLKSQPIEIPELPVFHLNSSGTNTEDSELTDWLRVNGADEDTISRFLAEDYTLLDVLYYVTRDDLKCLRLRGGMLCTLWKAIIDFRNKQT

[4] = biological target: Mitogen-activated protein kinase kinase kinase 7 (Homo sapiens) (UniProt O43318); assay: Inhibition of human TAK1 at 500 nM by HotSpot assay relative to control
[5] = biological target: Protein kinase C delta type (Homo sapiens) (UniProt Q05655); assay: Inhibition of human PKCd at 500 nM by HotSpot assay relative to control
[6] = biological target: T2, Tyrosine-protein kinase TXK (Homo sapiens) (UniProt P42681); assay: Inhibition of human TXK at 500 nM by HotSpot assay relative to control
T2 sequence (whole entry): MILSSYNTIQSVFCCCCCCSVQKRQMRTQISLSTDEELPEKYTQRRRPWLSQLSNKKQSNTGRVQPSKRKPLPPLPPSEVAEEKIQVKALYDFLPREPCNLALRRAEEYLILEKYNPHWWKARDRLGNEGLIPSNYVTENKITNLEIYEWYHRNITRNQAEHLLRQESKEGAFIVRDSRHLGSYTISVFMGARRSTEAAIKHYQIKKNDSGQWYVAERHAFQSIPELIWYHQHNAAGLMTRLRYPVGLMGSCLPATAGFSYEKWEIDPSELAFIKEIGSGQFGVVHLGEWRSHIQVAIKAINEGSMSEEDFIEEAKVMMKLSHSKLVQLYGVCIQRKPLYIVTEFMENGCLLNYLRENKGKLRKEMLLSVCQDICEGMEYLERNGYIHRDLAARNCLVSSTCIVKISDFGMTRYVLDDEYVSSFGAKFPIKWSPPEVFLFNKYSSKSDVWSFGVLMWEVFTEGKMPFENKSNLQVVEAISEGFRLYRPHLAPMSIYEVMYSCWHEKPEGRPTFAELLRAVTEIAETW

[7] = biological target: Serine/threonine-protein kinase SIK2 (Homo sapiens) (UniProt Q9H0K1); assay: Inhibition of human SIK2 at 500 nM by HotSpot assay relative to control
[8] = biological target: Serine/threonine-protein kinase MRCK alpha (Homo sapiens) (UniProt Q5VT25); assay: Inhibition of human CDC42BPA at 500 nM by HotSpot assay relative to control
[9] = biological target: Mitogen-activated protein kinase kinase kinase kinase 5 (Homo sapiens) (UniProt Q9Y4K4); assay: Inhibition of human KHS at 500 nM by HotSpot assay relative to control
Sequence of Mitogen-activated protein kinase kinase kinase kinase 5 (Homo sapiens) (Q9Y4K4 whole entry, looked up): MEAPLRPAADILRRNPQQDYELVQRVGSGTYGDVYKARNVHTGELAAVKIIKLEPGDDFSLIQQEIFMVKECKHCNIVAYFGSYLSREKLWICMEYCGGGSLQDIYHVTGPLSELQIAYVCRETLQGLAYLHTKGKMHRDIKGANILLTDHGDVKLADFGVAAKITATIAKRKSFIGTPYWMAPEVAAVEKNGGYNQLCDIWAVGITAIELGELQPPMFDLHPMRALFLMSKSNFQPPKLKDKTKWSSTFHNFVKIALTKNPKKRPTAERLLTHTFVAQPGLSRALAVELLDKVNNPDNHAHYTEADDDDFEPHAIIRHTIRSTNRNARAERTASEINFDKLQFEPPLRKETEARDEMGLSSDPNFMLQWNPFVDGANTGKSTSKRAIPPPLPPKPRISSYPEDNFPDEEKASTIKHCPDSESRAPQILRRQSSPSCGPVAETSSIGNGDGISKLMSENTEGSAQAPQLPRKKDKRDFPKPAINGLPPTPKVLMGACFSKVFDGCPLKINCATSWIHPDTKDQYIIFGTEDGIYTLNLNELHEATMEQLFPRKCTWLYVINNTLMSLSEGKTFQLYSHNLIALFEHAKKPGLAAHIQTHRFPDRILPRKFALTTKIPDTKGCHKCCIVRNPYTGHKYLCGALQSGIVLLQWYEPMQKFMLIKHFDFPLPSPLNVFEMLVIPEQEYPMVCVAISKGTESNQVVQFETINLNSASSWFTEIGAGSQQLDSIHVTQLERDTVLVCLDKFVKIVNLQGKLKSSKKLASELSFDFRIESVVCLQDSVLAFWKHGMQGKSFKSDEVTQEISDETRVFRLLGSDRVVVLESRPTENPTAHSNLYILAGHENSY

Sequence of SRSF protein kinase 1 (Homo sapiens) (Q96SB4 whole entry): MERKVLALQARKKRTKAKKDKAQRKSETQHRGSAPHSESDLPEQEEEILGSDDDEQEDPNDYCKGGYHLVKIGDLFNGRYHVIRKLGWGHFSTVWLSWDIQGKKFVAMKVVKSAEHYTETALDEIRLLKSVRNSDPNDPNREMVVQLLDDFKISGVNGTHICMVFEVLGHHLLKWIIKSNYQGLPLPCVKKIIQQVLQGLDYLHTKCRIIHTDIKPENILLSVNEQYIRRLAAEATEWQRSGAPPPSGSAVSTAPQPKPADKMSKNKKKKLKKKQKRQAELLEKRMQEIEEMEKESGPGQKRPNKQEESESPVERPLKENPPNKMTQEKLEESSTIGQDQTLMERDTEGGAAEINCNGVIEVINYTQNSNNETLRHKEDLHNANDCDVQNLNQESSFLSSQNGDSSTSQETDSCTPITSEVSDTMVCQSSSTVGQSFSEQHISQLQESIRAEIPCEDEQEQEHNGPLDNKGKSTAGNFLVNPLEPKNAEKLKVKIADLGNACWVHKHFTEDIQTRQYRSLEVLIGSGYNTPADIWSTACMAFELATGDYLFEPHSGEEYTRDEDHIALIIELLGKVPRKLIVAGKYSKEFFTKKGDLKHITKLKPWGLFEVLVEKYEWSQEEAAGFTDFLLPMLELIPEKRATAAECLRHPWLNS
Sequence of Protein kinase C delta type (Homo sapiens) (Q05655 whole entry, looked up): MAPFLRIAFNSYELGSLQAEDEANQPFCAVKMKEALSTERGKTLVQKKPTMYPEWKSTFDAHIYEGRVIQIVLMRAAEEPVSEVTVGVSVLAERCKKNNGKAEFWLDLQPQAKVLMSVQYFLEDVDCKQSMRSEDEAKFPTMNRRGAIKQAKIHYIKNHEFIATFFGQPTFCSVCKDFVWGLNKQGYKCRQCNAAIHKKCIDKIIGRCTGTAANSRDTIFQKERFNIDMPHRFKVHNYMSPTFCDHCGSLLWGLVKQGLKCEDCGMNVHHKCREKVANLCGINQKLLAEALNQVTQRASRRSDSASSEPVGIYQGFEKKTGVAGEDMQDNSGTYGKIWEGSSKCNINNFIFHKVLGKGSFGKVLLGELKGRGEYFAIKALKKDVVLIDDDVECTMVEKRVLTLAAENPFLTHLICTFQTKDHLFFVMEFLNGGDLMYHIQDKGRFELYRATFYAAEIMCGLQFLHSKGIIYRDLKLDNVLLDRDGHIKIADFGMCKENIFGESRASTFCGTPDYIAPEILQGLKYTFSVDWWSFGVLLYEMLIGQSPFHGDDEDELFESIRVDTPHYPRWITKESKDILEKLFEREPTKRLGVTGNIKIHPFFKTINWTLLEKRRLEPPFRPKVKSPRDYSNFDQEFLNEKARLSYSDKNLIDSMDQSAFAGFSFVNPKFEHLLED
Sequence of Mitogen-activated protein kinase kinase kinase 7 (Homo sapiens) (O43318 whole entry, looked up): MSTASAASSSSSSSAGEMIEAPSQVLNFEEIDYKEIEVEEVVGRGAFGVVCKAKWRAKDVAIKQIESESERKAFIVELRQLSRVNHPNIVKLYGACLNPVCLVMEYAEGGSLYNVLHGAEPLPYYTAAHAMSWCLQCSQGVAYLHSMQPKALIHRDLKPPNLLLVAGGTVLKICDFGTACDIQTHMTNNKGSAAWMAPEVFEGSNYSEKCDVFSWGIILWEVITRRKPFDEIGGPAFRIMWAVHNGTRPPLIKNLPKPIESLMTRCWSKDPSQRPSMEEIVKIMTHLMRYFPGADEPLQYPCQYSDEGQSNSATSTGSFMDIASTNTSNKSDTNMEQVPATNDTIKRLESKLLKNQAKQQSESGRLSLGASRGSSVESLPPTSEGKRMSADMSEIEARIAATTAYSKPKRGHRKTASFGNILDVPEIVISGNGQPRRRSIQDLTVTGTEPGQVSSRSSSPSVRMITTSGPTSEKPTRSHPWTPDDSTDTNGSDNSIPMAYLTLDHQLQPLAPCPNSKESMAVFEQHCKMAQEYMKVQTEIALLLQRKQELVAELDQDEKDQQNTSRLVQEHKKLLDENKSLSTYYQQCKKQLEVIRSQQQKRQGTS
Sequence of Serine/threonine-protein kinase MRCK alpha (Homo sapiens) (Q5VT25 whole entry): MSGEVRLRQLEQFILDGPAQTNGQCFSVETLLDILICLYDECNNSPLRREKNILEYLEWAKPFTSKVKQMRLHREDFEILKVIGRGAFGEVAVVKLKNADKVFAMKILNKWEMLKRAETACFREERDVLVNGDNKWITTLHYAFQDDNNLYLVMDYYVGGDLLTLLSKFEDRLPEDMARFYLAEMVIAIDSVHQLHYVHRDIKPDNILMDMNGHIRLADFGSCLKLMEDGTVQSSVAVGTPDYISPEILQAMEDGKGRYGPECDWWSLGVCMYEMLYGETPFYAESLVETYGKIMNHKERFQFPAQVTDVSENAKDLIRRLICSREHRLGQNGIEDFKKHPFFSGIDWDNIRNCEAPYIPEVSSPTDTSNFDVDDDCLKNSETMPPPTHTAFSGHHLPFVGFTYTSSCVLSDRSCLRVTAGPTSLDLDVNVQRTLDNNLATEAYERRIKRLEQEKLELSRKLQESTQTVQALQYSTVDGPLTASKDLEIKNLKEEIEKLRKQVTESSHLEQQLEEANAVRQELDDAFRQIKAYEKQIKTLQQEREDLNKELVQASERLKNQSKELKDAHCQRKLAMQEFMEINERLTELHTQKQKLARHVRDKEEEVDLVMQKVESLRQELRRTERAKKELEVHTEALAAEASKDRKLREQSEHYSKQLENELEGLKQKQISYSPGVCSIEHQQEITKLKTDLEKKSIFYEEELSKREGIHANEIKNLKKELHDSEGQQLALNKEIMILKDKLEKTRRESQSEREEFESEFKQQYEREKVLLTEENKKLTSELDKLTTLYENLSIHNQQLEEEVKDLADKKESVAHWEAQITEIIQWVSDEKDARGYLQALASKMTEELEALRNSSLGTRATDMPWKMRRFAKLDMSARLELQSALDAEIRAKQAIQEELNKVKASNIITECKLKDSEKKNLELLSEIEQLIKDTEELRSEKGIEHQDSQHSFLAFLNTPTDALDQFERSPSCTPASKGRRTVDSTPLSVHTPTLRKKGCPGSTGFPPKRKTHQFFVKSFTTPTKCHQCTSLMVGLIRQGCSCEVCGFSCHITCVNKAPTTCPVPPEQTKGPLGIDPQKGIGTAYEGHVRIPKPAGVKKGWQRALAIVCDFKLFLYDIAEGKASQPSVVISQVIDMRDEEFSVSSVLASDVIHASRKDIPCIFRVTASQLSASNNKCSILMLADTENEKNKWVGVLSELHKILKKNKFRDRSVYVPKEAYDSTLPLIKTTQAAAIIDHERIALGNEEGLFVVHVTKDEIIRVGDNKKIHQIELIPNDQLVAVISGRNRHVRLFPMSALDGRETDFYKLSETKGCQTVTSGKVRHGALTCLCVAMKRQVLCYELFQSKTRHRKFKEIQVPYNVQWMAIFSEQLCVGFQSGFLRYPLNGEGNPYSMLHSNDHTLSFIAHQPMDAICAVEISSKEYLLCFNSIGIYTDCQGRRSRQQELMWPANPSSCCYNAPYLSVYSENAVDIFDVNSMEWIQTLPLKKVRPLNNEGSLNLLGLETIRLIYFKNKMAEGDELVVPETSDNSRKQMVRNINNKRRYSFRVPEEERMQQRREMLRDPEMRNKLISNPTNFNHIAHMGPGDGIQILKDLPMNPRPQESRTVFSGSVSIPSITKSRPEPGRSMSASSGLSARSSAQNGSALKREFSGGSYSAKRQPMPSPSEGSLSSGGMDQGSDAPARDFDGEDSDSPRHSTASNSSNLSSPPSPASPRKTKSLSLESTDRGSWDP
Sequence of Calcium/calmodulin-dependent protein kinase type 1 (Homo sapiens) (Q14012 whole entry, looked up): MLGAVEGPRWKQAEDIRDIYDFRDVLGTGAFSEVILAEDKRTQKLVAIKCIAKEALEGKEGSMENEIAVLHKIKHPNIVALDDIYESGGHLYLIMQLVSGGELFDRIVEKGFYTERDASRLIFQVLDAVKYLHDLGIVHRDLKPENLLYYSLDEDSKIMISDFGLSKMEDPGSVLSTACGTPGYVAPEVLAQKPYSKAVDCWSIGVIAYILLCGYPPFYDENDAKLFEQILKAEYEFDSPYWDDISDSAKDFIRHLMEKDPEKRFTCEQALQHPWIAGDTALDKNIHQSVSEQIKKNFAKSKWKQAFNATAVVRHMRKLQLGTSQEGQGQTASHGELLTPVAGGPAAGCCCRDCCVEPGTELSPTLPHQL

Row | Structure (SMILES) | inhibition [1] [%] | inhibition [2] [%] | inhibition [3] [%] | inhibition [4] [%] | inhibition [5] [%] | inhibition [6] [%] | inhibition [7] [%] | inhibition [8] [%] | inhibition [9] [%]
1 | Oc1n[nH]c2nnc(-c3c(-c4ccccc4)nn4ccccc34)cc12 | 0.02 | 10.4 | 0.05 | -3.14 | 2.29 | 2.55 | 14.5 | 6.74 | 3.59
2 | Nc1n[nH]c2nnc(-c3c(-c4ccccc4)nn4ccccc34)cc12 | -2.35 | 16.3 | 0.68 | -1.47 | 68.8 | 11.2 | 6.36 | 10.3 | 49.7
